The source of these data is US4151300A, “Acetohydroxamic acids” (Laboratoire L. Lafon, priority 1976, dated 1979).

Values after ≈ are worked out from the molar mass of the structure shown. “Also recorded” adds a separate entry of the source.

Series [1] has as its system mice. Briefly: toxicity (isolated mice, intraperitoneal). It is filed as in vivo. The protocol: (§1) The following text summarises a part of the results of the tests which were carried out with the products according to the invention, these products (unless otherwise stated) being administered intraperitoneally, in suspension in a gum solution (gum arabic), in a volume of 20 ml/kg in the case of mice and of 5 ml/kg in the case of rats.

Series [2] concerns rats. Description: interaction with apomorphine (stereotype behaviour in rats). The class given is in vivo. To be noted: for apomorphine-induced stereotypies: rats, i.p. Here is the method:
as §1
Batches of six rats are each given a subcutaneous injection of apomorphine (0.5 mg/kg) 30 minutes after the administration of CRL 40,373.
Batches of 6 rats are given a subcutaneous injection of 0.5 mg/kg of apomorphine 30 minutes after the administration of CRL 40,385.

Series [3] deals with rats. Description: interaction with amphetamine (stereotypies in rats). The class given is in vivo. Summed up: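 Test products given intraperitoneally as a gum arabic suspension (5 ml/kg in rats). Thirty minutes later, amphetamine 2 mg/kg is injected intraperitoneally; 6 animals per dose.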
In series [4] the test system is mice. Briefly: interaction with oxotremorine (temperature, trembling, peripheral cholinergic symptoms). It is filed as in vivo.
The subject of series [5] is mice. Description: four-plate test. The class given is in vivo, mice (EVIC CEBA strain). Conditions: i.p. The protocol: as §1
(§2) The test is carried out on batches of 10 sensitive mice (EVIC CEBA strain), 30 minutes after the administration of CRL 40,373.
(§3) Batches of 10 mice are subjected to the test thirty minutes after having received CRL 40,385.

Series [6] deals with mice. Briefly: traction (motor incoordination). The class given is in vivo, mice (EVIC CEBA strain). Conditions: for motor incoordination / incapacity: i.p.
Series [7] has as its system mice. Briefly: electrical shock (convulsing effects). The class given is in vivo, mice (EVIC CEBA strain). Conditions: i.p. Here is the method: as §1, §2, §3
Series [8] deals with mice. Briefly: spontaneous motility (actimeter). It is filed as in vivo. Summed up: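 Compounds given i.p. as a gum arabic suspension at 20 ml/kg. Thirty minutes after dosing, mice (6 per dose, 12 controls) went into an actimeter and motility was recorded for half an hour.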
Series [9] relates to mice. Description: motility reduced by habituation to a cage (residual motility). The class given is in vivo. Conditions: i.p. Summed up: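 Mice habituated 18 hours in actimeters received compound intraperitoneally as a gum arabic suspension (20 ml/kg) and were returned to their cages. Motility was recorded for 30 minutes starting half an hour after dosing, with 6 animals per dose and 12 controls.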

For series [10], the system named is mice. Description: motility reduced by hypoxia treatment (motor recovery). It is filed as in vivo. Conditions: mice, i.p.
Series [11] relates to mice. Briefly: inter-group aggressiveness (number of fights). The class given is in vivo. Summed up:
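Mice were housed either three weeks (CRL 40,373) or 18 days (CRL 40,385, groups of 3) on each side of an opaque cage partition. Fights were counted over 15 min.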

The subject of another series is central nervous system. Briefly: psychopharmacological study / behaviour. The class given is in vivo, mice. To be noted: for sedation / sedative effect: high dose(s).
Series [12] has as its system rats. Description: behaviour in rats. It is filed as in vivo. Here is the method: as §1
The test system of series [13] is rats. Briefly: interaction with methylphenidate (stereotypies). To be noted: species not given. The class given is in vivo.
In a further series the test system is man. Description: clinical use in man. It is filed as in vivo.
Another series concerns catalepsy. Description: catalepsy, alone and after a neuroleptic agent. The class given is in vivo.
The subject of series [14] is mice. Briefly: interaction with reserpine (hypothermia, ptosis). It is filed as in vivo. To be noted: i.p.
Series [15] has as its system mice. Briefly: interaction with apomorphine in mice. The class given is in vivo.
The nature of series [16]: solubility in distilled water. Conditions: read-out: solubility limit. The class given is physicochemical.

Take `CC(C(=O)NO)[S+]([O-])Cc1ccc(Cl)cc1` (stereo not drawn) [CRL 40,466, 2-(p-Chlorobenzylsulphinyl)-propionohydroxamic acid]: in the series with mice [1] (mice, i.p., 256, 512 and 1,024 mg/kg), the mortality entry is recorded as “does not cause any mortality whatsoever”. Besides, the apomorphine-induced stereotypies entry in the series on rats [2] is recorded as “does not markedly alter the stereotypies induced in rats by apomorphine”. Also, the amphetamine-induced stereotypies result with rats [3] (rats, i.p.) was “does not markedly alter the stereotypies induced in rats by apomorphine and amphetamine”. Besides, the oxotremorine-induced trembling entry with mice [4] (mice, i.p.) was “reduces the trembling movements due to oxotremorine”. Further, the “temperature (oxotremorine-induced hypothermia)” value is reported as “does not oppose hypothermia induced by oxotremorine” with mice [4] (mice, i.p.) and “aggravates the hypothermia” with mice [4] (mice, i.p., high doses). In the series with mice [5] (mice), the “number of incorrect moves (four-plate test)” value was “moderate (but significant) increase in the number of incorrect moves”. The motor incapacity entry in the series with mice [6] (high dose) is reported as “motor incapacity”. Further, in the series with mice [7] (mice), the “convulsing effects of the electric shock” value is given as “antagonism to convulsions caused by electric shock”. In addition, the spontaneous motility result is reported as “reduction in spontaneous motility” in the series with mice [8] (mice, high dose); “appears to exhibit a stimulant effect on the motility” in the series on mice [8] (mice, i.p., 8 mg/kg); “depresses spontaneous motility in mice” with mice [8] (mice, i.p., 512 mg/kg). Further, the “motility reduced by habituation to the cage” value in the series on mice [9] is recorded as “moderate increase in the motility reduced by habituation”. Further, in the series with mice [10], the “motor recovery after hypoxia/anoxia by pressure reduction” value is listed as “moderate increase in the motility reduced by habituation or by the effects of hypoxia”. In addition, the aggressiveness result in the series on mice [11] (low dose) was “increase in aggressiveness”; with mice [11] (mice, i.p., large/high dose), “reduction of aggressiveness”. Further, in the series with central nervous system (mice, high dose), the reactivity entry is recorded as “hypo-reactivity”. The excitation result is recorded as “excitation, with hyper-reactivity” in the series with central nervous system (mice, low dose) and “excitation, with hyper-reactivity” in the series with rats [12]. Also, the “body temperature effect (product alone)” value with central nervous system (mouse, in vivo) is recorded as “hypothermia”. In the series on central nervous system (mouse, in vivo), the “psychopharmacological profile / conclusion” value is “effects of the sedative type and effects of the psychostimulant type; also recorded: sedation in mice”. Also, the “ptosis (product alone)” value in the series on central nervous system (mouse, in vivo) is “ptosis”.

On to `O=C(CN1C(=O)NC(c2ccccc2)(c2ccccc2)C1=O)NO` [CRL 40,382, 3-(5,5-Diphenyl-hydantoinyl)-acetohydroxamic acid], for which the “effect of apomorphine (stereotypies)” value in the series on rats [2] (species not given) is recorded as “does not counteract the effect of apomorphine”. In the series on rats [3] (species not given), the amphetamine-induced stereotypies result was “antagonism to the stereotypies induced by amphetamine” and the “other effects of amphetamine (hypermotility, group toxicity)” value is listed as “without altering the other effects of this substance (hypermotility, group toxicity)”. In addition, the effects of oxotremorine result in the series on mice [4] (mouse, in vivo) is “absence of antagonism to the effects of oxotremorine”. The “motor incoordination / incapacity” value in the series with mice [6] was “absence of catalepsy and of motor incapacity”. Also, the spontaneous motility result with mice [8] (i.p.) is recorded as “moderate hypomotility”. In addition, the “psychopharmacological profile / conclusion” value with central nervous system (mouse, in vivo) is given as “antipsychotic activity associated with a moderate sedative effect”. Besides, the “effect of methylphenidate (stereotypies)” value with rats [13] was “does not counteract the effect of apomorphine and of methylphenidate”. In addition, the clinical result in the series with man (tablet 250 mg, 2 to 3 tablets per day) is recorded as “used clinically with success as a sedative”. The “cataleptigenic effects of a neuroleptic agent” value with catalepsy (after a preliminary dose of a neuroleptic agent) is reported as “boosts the cataleptigenic effects of a preliminary dose of a neuroleptic agent”. Further, in the series with catalepsy (in vivo), the catalepsy entry is “does not in itself cause catalepsy; also recorded: absence of catalepsy”.

With `O=C(CNc1ccc(Cl)c(Cl)c1)NO` [CRL 40,500, (3,4-Dichloroanilino)-acetohydroxamic acid], the mortality result in the series with mice [1] (i.p., 256 mg/kg) is recorded as “the mice survive”. Besides, in the series with mice [1] (i.p., 512 mg/kg), the “average time to death” value amounted to 18 h. For the same compound, in the series with mice [1] (mouse, in vivo, ip), the relative toxicity entry is on record as “more toxic than the products studied above”. Also, the symptoms / behaviour entry in the series on mice [1] (mouse, in vivo, ip, 256 mg/kg) was “the symptoms are identical”. Moreover, the apomorphine-induced stereotypies entry in the series on rats [2] and in the series with mice [15] was “does not alter the stereotypies induced by apomorphine” in each case. The amphetamine-induced stereotypies result in the series with rats [3] (rats, i.p.) was “does not alter the stereotypies induced by apomorphine (rats and mice) and by amphetamine (rats)”. For the same compound, in the series with mice [14], the reserpine-induced hypothermia entry is listed as “aggravation of the hypothermia due to reserpine”. In addition, in the series on mice [4] (mice, i.p.), the “temperature (oxotremorine-induced hypothermia)” value was “aggravation of the hypothermia due to reserpine and to oxotremorine”. Besides, the “peripheral effects of oxotremorine” value in the series on mice [4] (mice, i.p., 128 and 32 mg/kg) is listed as “increases the peripheral effects of oxotremorine”. Besides, in the series with mice [8] (mice, i.p., 32 and 128 mg/kg), the spontaneous motility entry was “moderately reduces the spontaneous motility of mice”. Further, in the series with mice [9] (128 mg/kg), the “motility reduced by habituation to the cage” value is “moderate resumption of the motor activity of mice habituated to their cage”. The “motor recovery after hypoxia/anoxia by pressure reduction” value in the series with mice [10] is recorded as “does not cause a marked improvement in the motor recovery of mice”. In addition, the aggressiveness result with mice [11] (low dose) is given as “reduction of aggressiveness which is substantial at low doses”. Also, the inter-group aggressiveness result is on record as “reduces the inter-group aggressiveness of mice” with mice [11] (mice, i.p., all the doses studied); “a reduction of the effect is observed” with mice [11] (mice, i.p., high doses (64 and 128 mg/kg)); “present with considerable intensity” in the series with mice [11] (mice, i.p., lowest dose used (8 mg/kg)). The “sedation / sedative effect” value with central nervous system is “moderate sedation at high doses”.

Take `O=C(CC(=O)Nc1c(Cl)cccc1Cl)NO` [CRL 40,510, 2,6-Dichlorophenyl-carbamoyl-acetohydroxamic acid]: the “LD-O (maximum non-lethal dose)” value with mice [1] (mice, i.p.) is reported as “greater than 1,024 mg/kg”. In the series with mice [4] (mice, i.p.), the oxotremorine-induced trembling result is “moderately antagonistic to the trembling movements caused by oxotremorine”. Also, the “anxiolytic effect (four plate test)” value with mice [5] (also gastric administration) is given as “effects of the anxiolytic type”. Moreover, the “motor incoordination / incapacity” value with mice [6] was “absence of motor incapacity”. In the series with mice [7] (also gastric administration), the anti-convulsive effect entry is “of the anti-convulsive type”. The “sedation / sedative effect” value in the series with central nervous system was “moderate sedative effect”. Further, the “psychopharmacological profile / conclusion” value in the series with central nervous system (mouse, in vivo) is “comes close to the benzodiazepines in respect of anxiolytic and anti-convulsive activities; also recorded: relative resistance to sedation”. Besides, in the series on man (pill 20 mg, 3 to 4 pills per day), the clinical result is reported as “good results in man as an anxiolytic sedative agent”. Also, the solubility in series [16] was approximately 13 mg/mL (≈ 49.4 mM).

As a reminder, the solubility is the dissolved amount per volume that the medium holds.
